Data on 21 molecules can be found in patent publication US9376436B2, “2-(pyridin-2yl)-1, 7-diaza-spiro [4.4] nonane-6-one compound as voltage-gated sodium channels modulators” (CONVERGENCE PHARMACEUTICALS LIMITED, priority 2011, dated 2016).

Structures can show the parent of a compound that is named as a salt. Where two headings read alike, the source gives them in different places.

For this assay, the target named is T1, hNaV1.7 (Homo sapiens, UniProt Q15858).
T1 construct: expressed in transfected cells; host or cells: HEK293
As to the kind of experiment: QPatch NaV1.7 assay (whole-cell patch clamp, QPatch16x). It is filed as cell-based. Conditions: HEK293-hNaV1.7 cells. How it is done: The compounds of the invention were tested in a QPatch NaV1.7 assay.
HEK293-hNaV1.7 cells were grown in DMEM-F12+10% FBS culture media at 37° C. At a confluency of 50-70% cells were dissociated from culture flasks & triturated to ensure unicellular cell suspension; cell density was measured & adjusted to 2-3×10^6 cells/ml. Recordings were obtained using QPatch16x. The external solution was (in mM): NaCl, 128; KCl, 5; MgCl2, 2; CaCl2, 2; Glucose, 30; HEPES, 15; pH 7.3, 305-315 mOsm. Following seal formation and whole-cell access using internal solution (containing in mM: CsF, 135; EGTA/CsOH, 1/5; HEPES 10; NaCl, 10; pH 7.3, 310-320 mOsM), voltage pulse protocols were applied. Initially a steady state inactivation voltage protocol was used to determine the half-maximal voltage for steady state inactivation (V1/2 SSI). Two holding voltages were used to determine test drug inhibition: −90 mV, where most of the channels are in a closed state; and V1/2 SSI, where half of the channels are inactivated. Currents were elicited […] by stepping to a membrane potential of 0 mV for 20 ms. Four-point cumulative concentration responses were derived by determining the peak current amplitude at each concentration of test drug over 120 second application. Curves were fitted with the Hill equation yielding pIC50 values at −90 mV and V1/2 SSI holding potentials.
For orientation: Patch clamp records ionic current or voltage across a cell membrane.

Where [1] appears, read: holding voltage V1/2 SSI (half of channels inactivated), read-out: QP Nav1.7 SSI vhalf pIC50 (converted).
[2] abbreviates: holding voltage −90 mV (most channels closed), read-out: QP Nav1.7 −90 mV pIC50 (converted).

T1 sequence (Q15858 whole entry): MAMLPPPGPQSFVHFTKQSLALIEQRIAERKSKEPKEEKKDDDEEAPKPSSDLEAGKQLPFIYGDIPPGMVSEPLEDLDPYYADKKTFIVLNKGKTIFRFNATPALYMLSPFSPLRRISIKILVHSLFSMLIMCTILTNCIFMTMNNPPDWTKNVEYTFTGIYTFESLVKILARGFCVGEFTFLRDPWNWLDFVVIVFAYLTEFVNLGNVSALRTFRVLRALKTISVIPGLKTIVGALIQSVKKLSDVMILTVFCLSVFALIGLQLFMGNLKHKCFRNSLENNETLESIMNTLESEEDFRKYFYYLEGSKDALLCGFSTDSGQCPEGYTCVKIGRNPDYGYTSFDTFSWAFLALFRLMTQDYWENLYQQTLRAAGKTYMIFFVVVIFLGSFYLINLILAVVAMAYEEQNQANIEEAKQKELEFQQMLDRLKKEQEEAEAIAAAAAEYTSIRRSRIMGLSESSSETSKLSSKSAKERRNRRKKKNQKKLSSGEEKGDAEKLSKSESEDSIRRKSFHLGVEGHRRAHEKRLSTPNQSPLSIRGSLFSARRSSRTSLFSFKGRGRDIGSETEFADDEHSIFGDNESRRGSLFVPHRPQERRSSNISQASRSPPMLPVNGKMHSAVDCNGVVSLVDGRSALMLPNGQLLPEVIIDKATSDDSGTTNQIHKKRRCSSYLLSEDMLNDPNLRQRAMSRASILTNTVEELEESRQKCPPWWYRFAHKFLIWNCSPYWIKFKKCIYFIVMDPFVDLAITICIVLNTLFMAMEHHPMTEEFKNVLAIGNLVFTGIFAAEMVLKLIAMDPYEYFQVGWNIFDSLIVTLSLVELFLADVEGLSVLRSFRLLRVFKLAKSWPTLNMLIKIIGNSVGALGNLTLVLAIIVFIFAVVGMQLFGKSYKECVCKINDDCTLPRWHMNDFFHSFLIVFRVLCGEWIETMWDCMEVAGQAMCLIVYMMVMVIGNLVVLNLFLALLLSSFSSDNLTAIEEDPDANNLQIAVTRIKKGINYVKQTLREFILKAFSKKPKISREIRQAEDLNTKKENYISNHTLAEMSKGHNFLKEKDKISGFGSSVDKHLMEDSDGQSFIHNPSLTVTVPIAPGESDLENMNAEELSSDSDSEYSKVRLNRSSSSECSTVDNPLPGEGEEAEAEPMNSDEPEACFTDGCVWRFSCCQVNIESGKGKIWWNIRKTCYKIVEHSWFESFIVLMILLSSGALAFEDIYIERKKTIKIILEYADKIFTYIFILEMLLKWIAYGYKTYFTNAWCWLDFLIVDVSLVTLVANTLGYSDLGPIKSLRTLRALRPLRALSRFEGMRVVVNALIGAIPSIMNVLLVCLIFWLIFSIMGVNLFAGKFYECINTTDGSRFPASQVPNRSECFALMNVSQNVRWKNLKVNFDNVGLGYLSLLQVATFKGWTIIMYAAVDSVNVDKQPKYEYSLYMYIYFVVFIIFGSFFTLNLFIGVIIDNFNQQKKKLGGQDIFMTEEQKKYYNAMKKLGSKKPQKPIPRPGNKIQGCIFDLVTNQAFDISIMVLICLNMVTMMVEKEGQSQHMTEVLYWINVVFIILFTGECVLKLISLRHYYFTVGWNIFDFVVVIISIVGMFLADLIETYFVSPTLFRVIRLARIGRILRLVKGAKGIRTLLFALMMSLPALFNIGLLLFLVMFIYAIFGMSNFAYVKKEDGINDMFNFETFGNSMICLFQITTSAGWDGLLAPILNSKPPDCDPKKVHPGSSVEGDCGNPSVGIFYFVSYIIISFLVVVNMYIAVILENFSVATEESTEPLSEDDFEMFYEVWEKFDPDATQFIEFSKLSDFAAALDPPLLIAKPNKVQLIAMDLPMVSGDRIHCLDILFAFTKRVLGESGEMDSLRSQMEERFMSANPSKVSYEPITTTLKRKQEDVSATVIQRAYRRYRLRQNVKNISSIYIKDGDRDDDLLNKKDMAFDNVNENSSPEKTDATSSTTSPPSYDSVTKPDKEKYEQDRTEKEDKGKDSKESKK

Regarding `O=C1NCCC[C@@]12CC[C@@H](c1cc(-c3ccc(C(F)(F)F)cc3)ccn1)N2` [Example 48, (2S,5R)-2-[4-(4-Trifluoromethyl-phenyl)-pyridin-2-yl]-1,7-diaza-spiro[4.5]decan-6-one hydrochloride], the IC50 reads like this: under setting [1], 2 µM; under setting [2], 25.1 µM.

For `O=C1NCCC[C@@]12CC[C@H](c1cc(-c3ccc(C(F)(F)F)cc3)ccn1)N2` [Example 49, (2R,5R)-2-[4-(4-Trifluoromethyl-phenyl)-pyridin-2-yl]-1,7-diaza-spiro[4.5]decan-6-one hydrochloride], the IC50 is 3.98 µM under setting [1] and 50.1 µM under setting [2].

For the molecule `O=C1NCCC[C@]12CC[C@H](c1cc(-c3ccc(C(F)(F)F)cc3)ccn1)N2` [Example 50, (2R,5S)-2-[4-(4-Trifluoromethyl-phenyl)-pyridin-2-yl]-1,7-diaza-spiro[4.5]decan-6-one hydrochloride], the IC50 was 0.251 µM under setting [1] and 2.51 µM under setting [2].

In the case of `O=C1NCCC[C@]12CC[C@@H](c1cc(-c3ccc(C(F)(F)F)cc3)ccn1)N2` [Example 51, (25,5S)-2-[4-(4-Trifluoromethyl-phenyl)-pyridin-2-yl]-1,7-diaza-spiro[4.5]decan-6-one hydrochloride], the IC50 under setting [1] is 5.01 µM and the IC50 under setting [2] was 25.1 µM.

Consider `CN1CC[C@@]2(CC[C@H](c3cc(-c4ccc(C(F)(F)F)cc4)ccn3)N2)C1=O` [Example 52, (2R,5S)-7-Methyl-2-[4-(4-trifluoromethyl-phenyl)-pyridin-2-yl]-1,7-diaza-spiro[4.4]nonan-6-one hydrochloride], for which the IC50 under setting [1] was 6.31 µM and the IC50 under setting [2] is 25.1 µM.

Turning to `CN1CC[C@@]2(CC[C@@H](c3cc(-c4ccc(C(F)(F)F)cc4)ccn3)N2)C1=O` [Example 53, (2S,5S)-7-Methyl-2-[4-(4-trifluoromethyl-phenyl)-pyridin-2-yl]-1,7-diaza-spiro[4.4]nonan-6-one hydrochloride], the IC50 under setting [1] is 39.8 µM and the IC50 under setting [2] is 100 µM.

`CN1CC[C@]2(CC[C@@H](c3cc(-c4ccc(C(F)(F)F)cc4)ccn3)N2)C1=O` [Example 54, (2S,5R)-7-Methyl-2-[4-(4-trifluoromethyl-phenyl)-pyridin-2-yl]-1,7-diaza-spiro[4.4]nonan-6-one hydrochloride]: the IC50 under setting [1] was 39.8 µM and the IC50 under setting [2] is 63.1 µM.

Regarding `CN1CC[C@]2(CC[C@H](c3cc(-c4ccc(C(F)(F)F)cc4)ccn3)N2)C1=O` [Example 55, (2R,5R)-7-Methyl-2-[4-(4-trifluoromethyl-phenyl)-pyridin-2-yl]-1,7-diaza-spiro[4.4]nonan-6-one hydrochloride], the IC50 is 20 µM under setting [1] and 100 µM under setting [2].

On to `Cc1cc(-c2ccc(F)cc2)cc([C@@H]2CC[C@]3(CCN(C)C3=O)N2)n1` [Example 56, (2S,5R)-2-[4-(4-Fluorophenyl)-6-methyl-2-pyridyl]-7-methyl-1,7-diazaspiro[4.4]nonan-6-one hydrochloride], for which the IC50 is 10 µM under setting [1] and 79.4 µM under setting [2].

Take `Cc1cc(-c2ccc(F)cc2)cc([C@H]2CC[C@@]3(CCN(C)C3=O)N2)n1` [Example 57, (2R,5S)-2-[4-(4-Fluorophenyl)-6-methyl-2-pyridyl]-7-methyl-1,7-diazaspiro[4.4]nonan-6-one hydrochloride]: the IC50 runs as follows: under setting [1], 3.98 µM; under setting [2], 79.4 µM.

Turning to `CN1CC[C@@]2(CC[C@H](c3cc(-c4ccc(C(F)(F)F)cc4)c(F)cn3)N2)C1=O` [Example 58, (2R,5S)-2-[5-Fluoro-4-[4-(trifluoromethyl)phenyl]-2-pyridyl]-7-methyl-1,7-diazaspiro[4.4]nonan-6-one hydrochloride], the IC50 is 1.26 µM under setting [1] and 63.1 µM under setting [2].

Take `CN1CC[C@@]2(CC[C@@H](c3cc(-c4ccc(C(F)(F)F)cc4)c(F)cn3)N2)C1=O` [Example 59, (2S,5S)-2-[5-Fluoro-4-[4-(trifluoromethyl)phenyl]-2-pyridyl]-7-methyl-1,7-diazaspiro[4.4]nonan-6-one hydrochloride]: the IC50 was 3.16 µM under setting [1] and 100 µM under setting [2].

Take `CN1CC[C@]2(CC[C@@H](c3cc(-c4ccc(C(F)(F)F)cc4)c(F)cn3)N2)C1=O` [Example 60, (2S,5R)-2-[5-Fluoro-4-[4-(trifluoromethyl)phenyl]-2-pyridyl]-7-methyl-1,7-diazaspiro[4.4]nonan-6-one hydrochloride]: the IC50 runs as follows: under setting [1], 3.98 µM; under setting [2], 79.4 µM.

As for `CN1CC[C@]2(CC[C@H](c3cc(-c4ccc(C(F)(F)F)cc4)c(F)cn3)N2)C1=O` [Example 61, (2R,5R)-2-[5-Fluoro-4-[4-(trifluoromethyl)phenyl]-2-pyridyl]-7-methyl-1,7-diazaspiro[4.4]nonan-6-one hydrochloride], the IC50 by setting is: under setting [1], 6.31 µM; under setting [2], 100 µM.

As for `CN1CC[C@@]2(CC[C@H](c3cc(-c4ccc(C(F)(F)F)cc4)c(OC(C)(C)C)cn3)N2)C1=O` [Example 62, (2R,5S)-2-[5-tert-Butoxy-4-[4-(trifluoromethyl)-phenyl]-2-pyridyl]-7-methyl-1,7-diazaspiro[4.4]nonan-6-one hydrochloride], the IC50 is, setting by setting: under setting [1], 2 µM; under setting [2], 79.4 µM.

With `CN1CC[C@@]2(CC[C@@H](c3cc(-c4ccc(C(F)(F)F)cc4)c(OC(C)(C)C)cn3)N2)C1=O` [Example 63, (2S,5S)-2-[5-tert-Butoxy-4-[4-(trifluoromethyl)-phenyl]-2-pyridyl]-7-methyl-1,7-diazaspiro[4.4]nonan-6-one hydrochloride], the IC50 by setting is: under setting [1], 10 µM; under setting [2], 79.4 µM.

For `CN1CC[C@]2(CC[C@@H](c3cc(-c4ccc(C(F)(F)F)cc4)c(OC(C)(C)C)cn3)N2)C1=O` [Example 64, (2S,5R)-2-[5-tert-Butoxy-4-[4-(trifluoromethyl)-phenyl]-2-pyridyl]-7-methyl-1,7-diazaspiro[4.4]nonan-6-one hydrochloride], the IC50 by setting is: under setting [1], 3.16 µM; under setting [2], 50.1 µM.

For `CN1CC[C@]2(CC[C@H](c3cc(-c4ccc(C(F)(F)F)cc4)c(OC(C)(C)C)cn3)N2)C1=O` [Example 65, (2R,5R)-2-[5-tert-Butoxy-4-[4-(trifluoromethyl)-phenyl]-2-pyridyl]-7-methyl-1,7-diazaspiro[4.4]nonan-6-one hydrochloride], the IC50 is, setting by setting: under setting [1], 1.58 µM; under setting [2], 31.6 µM.

`CN1CC[C@@]2(CC[C@H](c3cc(-c4ccc(F)cc4)ccn3)N2)C1=O` [Example 66, (2R,5S)-2-[4-(4-Fluorophenyl)-2-pyridyl]-7-methyl-1,7-diazaspiro[4.4]nonan-6-one hydrochloride]: the IC50 under setting [1] was 10 µM and the IC50 under setting [2] was 126 µM.

Consider `CN1CCC[C@@]2(CC[C@H](c3cc(-c4ccc(C(F)(F)F)cc4)ccn3)N2)C1=O` [Example 67, (2R,5R)-7-Methyl-2-[4-(4-trifluoromethyl-phenyl)-pyridin-2-yl]-1,7-diaza-spiro[4.5]decan-6-one hydrochloride], for which the IC50 by setting is: under setting [1], 3.98 µM; under setting [2], 31.6 µM.

With `CN1CCC[C@@]2(CC[C@@H](c3cc(-c4ccc(C(F)(F)F)cc4)ccn3)N2)C1=O` [Example 68, (2S,5R)-7-Methyl-2-[4-(4-trifluoromethyl-phenyl)-pyridin-2-yl]-1,7-diaza-spiro[4.5]decan-6-one hydrochloride], the IC50 runs as follows: under setting [1], 5.01 µM; under setting [2], 25.1 µM.
